# Results reported in patent US20070172957A1, “Methods of identifying anti-inflammatory macrolides” (TAISHO PHARMACEUTICAL CO., LTD., priority 2004, published 2007).
# What was measured:
# [1] = system: tobacco smoke-induced pulmonary emphysema; assay: Model mice with tobacco smoke-induced pulmonary emphysema; format: in vivo; details: for pulmonary alveolus size: 6 months, mean ± SE; for pulmonary emphysema rate: relative to non-smoking
# Protocol: The model mice with tobacco smoke-induced pulmonary emphysema mimicking human pulmonary emphysema were constructed according to the method as described in Hautamaki, R. D. et al., Science 1997, 277: 2002-2004 or Shapiro, S. D. et al., Am. […] Specifically, C57black/6 female mice of 12-weeks old were exposed to tobacco smoke at two cigarettes per day, 6 days per week for 6 months.
# (§1) Administration of clarithromycin was carried out orally at the rate of 25, 50 or 100 […] twice daily (morning and evening) during the tobacco smoke exposure period. The plasma AUC0-8 of clarithromycin obtained when 50 mg/kg was singly administered to the mice was 2.677 μg·hr/ml while the plasma AUC0-8 of clarithromycin obtained when 200 mg of clarithromycin was singly administered to a normal human subject was 8.98 μg·hr/ml. The former concentration was substantially lower than the latter one and was an adequate concentration to be used clinically.
# The index of the improvement to the pulmonary emphysema condition followed the mothod as described in Hautamaki, R. D. et al., ibid. or Shapiro, S. D. et al., ibid.
# Hematoxylin eosin-stained pathological specimens were prepared from the model mice and ten visual fields under a microscope were randomly selected, where the average sizes of pulmonary alveoli were measured. An increase in the average size of pulmonary alveolus is considered as an index of the destruction of pulmonary alveoli, i.e., the pulmonary emphysema condition.
# The cell counts of inflammatory cells (microphages and neutrophiles) in the bronchoalveolar lavage fluids after six months' exposure were measured to provide an index of the inflammatory condition in the model mice with tobacco smoke-induced pulmonary emphysema.
# It has been reported that as pulmonary emphysema progresses, pulmonary functions deteriorate. It has also been known that the pulmonary compliance, which is an index of pulmonary functions, increases in model mice with tobacco smoke-induced pulmonary emphysema. Thus, the pulmonary compliance was measured in the model mice with tobacco smoke-induced pulmonary emphysema after six months' exposure.
# A549 cells = assay: Microarray of differentially expressed genes in A549 cells, +/- IL-1β, +/- Clarithromycin or FMA9045 (Appendix A); format: cell-based; details: for Total # Differential Genes (95% confidence): A549, min fold change threshold 1.3
# Description: (§2) The data for each cell line (A549 and THP-1) are presented in Appendices A and B. For each cell line, the data for all of the hybridizations are represented together in the same table. For each hybridization, there are two columns: the weighted mean ratio (wtd mean ratio) and the minimum fold change (min fold change). The “min fold change” represents the minimum change in expression that meets the 95% confidence threshold. It can be estimated from the log ratio and standard deviation, assuming that the uncertainty in the ratio is normally distributed. […] See also Cheng Li and Wing Hung Wong, “Model-based analysis of oligonucleotide arrays: model validation, design issues and standard error application,” Genome Biology 2001 2(8):research0032.1-0032.11 (published 3 Aug. 2001).
# (§3) The analysis method to generate these tables was similar for A549 and THP-1, cells. […] It is important to note that the fold change threshold is an absolute number, and the direction of change (increased or decreased expression) must be determined by the looking at the weighted mean ratio. The significance threshold criteria are included in parentheses in each “min fold change” column. The weighted mean ratios representing significant differentials (95% confidence, p value <0.05) are in bold. The “Spot IDs” correspond to publicly available cDNA sequences for the region of the gene represented at that spot on the microarray chip.
# (§4) For the A549 and THP-1 cell lines (Appendix A and B, respectively), the first table for each cell line (“total differentials”) represents all of the genes that show differential expression in at least one of the hybridizations. The second table for A549 and THP-1 cells (“drug effects, sum ≧4.5” and “drug effects, sum ≧5”, respectively) has an additional final column, “sum of min fold change.” This column represents the sum of the minimum fold changes for all of the groups except the stimulus alone. This column was used to rank the genes in order of the greatest global drug effect, independent of whether the drug used was Clarithromycin or FMA9045 and independent of stimulus effect.
# As noted above, a sum min fold change ≧4.5 was used as the threshold for ranking the most highly regulated drug effects. In both tables in Appendix A, the genes that meet this criterion (sum ≧4.5) are in bold, and those genes that are bold and italics are the most highly regulated genes and have a min fold change ≧5.0.
# [2] = Plasma AUC of clarithromycin after single administration to mice; format: in vivo; details: C57black/6, mouse, oral, 50 mg/kg singly administered, read-out: plasma AUC0-8
# Protocol: as §1
# [3] = Plasma AUC of clarithromycin after single administration to a normal human subject; format: in vivo; details: 200 mg singly administered, read-out: plasma AUC0-8
# Protocol: as §1
# THP-1 cells = assay: Microarray of differentially expressed genes in THP-1 cells, +/- LPS, +/- Clarithromycin or FMA9045 (Appendix B, Appendix F); format: cell-based; details: for Total # Differential Genes (95% confidence): THP-1, min fold change threshold 1.5 (Clari), 1.3 (FMA)
# Description: as §2, §3, §4
# For THP-1 cells, a sum min fold change ≧5.0 was used as the threshold for ranking the most highly regulated drug effects. In both tables in Appendix B, the genes that meet this criterion (sum ≧5) are in bold and in italics. A larger sum min fold change threshold was used for THP-1 cells, because the macrolide response in this cell line was more robust than that in A549 cells.
# The influence of a macrolide compound on the level of expression of the gene of the material related to inflammatory disease of the lung is summarized in Appendix F. In Appendix F, ‘+/−Clari, wtd means’ denotes gene induction (suppression) when clarithromycin is added to THP-1 cells, and the larger the figure, the more the gene is expressed. Furthermore, ‘+LPS+/−Clari, wtd means’ denotes gene induction (suppression) when clarithromycin is added to LSP-stimulated THP-1 cells, and the smaller the figure, the more the gene expression is suppressed.
smiles,measurement,setting,value
CC[C@H]1OC(=O)[C@H](C)[C@@H](O[C@H]2C[C@@](C)(OC)[C@@H](O)[C@H](C)O2)[C@H](C)[C@@H](O[C@@H]2O[C@H](C)C[C@H](N(C)C)[C@H]2O)[C@](C)(OC)C[C@@H](C)C(=O)[C@H](C)[C@@H](O)[C@]1(C)O [clarithromycin],cell count of macrophages in bronchoalveolar lavage fluids,"[1]; after six months' exposure, FIG. 4A",reduced
same,cell count of neutrophiles in bronchoalveolar lavage fluids,"[1]; after six months' exposure, FIG. 4B",reduced
same,pulmonary compliance,"[1]; after six months' exposure, FIG. 5",recovered
same,improvement factor,[1]; smoking + CAM 25 mg/kg,47%
same,pulmonary alveolus size,[1]; smoking + CAM 25 mg/kg orally twice daily,35.60 ± 1.425 μm
same,pulmonary emphysema rate,[1]; smoking + CAM 25 mg/kg,10.6%
same,improvement factor,[1]; smoking + CAM 50 mg/kg,up to 87%
same,pulmonary alveolus size,[1]; smoking + CAM 50 mg/kg orally twice daily,33.16 ± 0.890 μm
same,improvement factor,"[1]; smoking + CAM 50 mg/kg, listed as CAM",85%
same,pulmonary emphysema rate,[1]; smoking + CAM 50 mg/kg,3%
same,improvement factor,[1]; smoking + CAM 100 mg/kg,66.5%
same,pulmonary alveolus size,[1]; smoking + CAM 100 mg/kg orally twice daily,34.35 ± 0.936 μm
same,pulmonary emphysema rate,[1]; smoking + CAM 100 mg/kg,6.7%
same,Total # Differential Genes (95% confidence),A549 cells; +/- drug alone,117
same,Total # Differential Genes (95% confidence),A549 cells; IL-1 +/- drug,127
same,"IL1b +/− clari, wtd mean ratio","A549 cells; A549 cells with IL1b stimulation, microarray expression ratio, gene = SpotID/GeneSymbol",0.9
same,"Clari treated, wtd mean ratio","A549 cells; A549 cells, Clari treated, no IL1, expression ratio of the gene/spot of the table line",0.9
same,"IL1b +/− clari, wtd mean ratio","A549 cells; A549 cells, IL1b stimulated, with vs without clari, gene/spot of the table line",0.9
same,"Clari treated, wtd mean ratio","A549 cells; A549 cells, microarray expression ratio, gene = SpotID/GeneSymbol",0.9
same,"Clari treated, wtd mean ratio","A549 cells; A549 cells, per microarray spot/gene, Clari treated, no IL1",0.9
same,"IL1b +/− clari, wtd mean ratio","A549 cells; A549 cells, per microarray spot/gene, IL1b stimulated, with vs without clari",0.9
same,AUC(0-t),[2],2680 ng·h/mL
same,AUC(0-t),[3],8980 ng·h/mL
same,expression of SERPINB3 gene,"THP-1 cells; Category 1, Appendix F",enhancing the expression
same,Total # Differential Genes (95% confidence),THP-1 cells; +/- drug alone,127
same,Total # Differential Genes (95% confidence),THP-1 cells; LPS +/- drug,120
same,"LPS +/− clari, wtd mean ratio","THP-1 cells; THP-1 cells with LPS, gene given in each table row",0.9
same,"LPS +/− clari, wtd mean ratio","THP-1 cells; THP-1 cells, LPS stimulated, with vs without clari, gene/spot = table row",0.9
same,"Clari treated, wtd mean ratio","THP-1 cells; THP-1 cells, no LPS, gene given in each table row",0.9
same,"Clari treated, wtd mean ratio","THP-1 cells; THP-1 cells, microarray expression ratio, gene/spot = table row",0.9
same,"expression of proteinase genes (MMP12, MMP9, MMP19, cathepsin K, cathepsin C)","THP-1 cells; induced during inflammatory stimulation, Category 2",suppresses the expression
same,expression of the chemokine gene,"THP-1 cells; induced during inflammatory stimulation, Category 3",suppresses expression
